Test results: PubChem BioAssay AID2060895 (Molecular Pharmacology Branch, DTP, NCI, 2025)

Tested on: PDC 899932-113-R3-J6 complex spheroid viability
Assay: Anticancer human tumor 899932-113-R3-J6-PDC patient-derived melanoma cell line growth inhibition [RAS]
Details: for IC50: curve of first compound; for viability, T/C: stronger effect = lower value
From the text: RAS pathway inhibitors in Combinations in Complex Spheroids
A high-throughput screen of multi-cell type tumor spheroids was designed to identify active combinations of RAS pathway inhibitors and targeted small molecules. Complex spheroids include a stromal component modeled by human endothelial cells (HUVEC) and fibroblasts modeled by human mesenchymal stem cells (MSCs). The concentration ranges selected for each drug and investigational agent were based upon clinically achievable concentrations if the clinical Cmax of the agent was known.
Compounds. The drugs and investigational agents: abemaciclib (NSC768073), cobimetinib (NSC768068), divarasib (GDC6063, NSC841802), docetaxel (NSC628503), GDC-1971 (RLY-1971, NSC841576), gemcitabine (NSC613327), inavolisib (NSC800729), ipatasertib (NSC767898), KB-0742 (NSC834161), MRTX-1133 (NSC836407), osimertinib (NSC779217), RMC-4630 (NSC839698), RMC-6236 (NSC851965), RMC-6291 (NSC852671), Ro-3306 (NSC812927), sapanisertib (NSC764658), SN-38 (NSC673596), staurosporine (NSC755774), SY5609 (NSC837396), and tovorafenib (DAY101, NSC766906), were obtained from the National Cancer Institute (NCI) Developmental Therapeutics Program Chemical Repository. The FDA-approved anticancer drug set is available from the NCI Developmental Therapeutics Program. […] The stock solutions were prepared in dimethyl sulfoxide (DMSO, Sigma-Aldrich, St. Louis, MO, cat. D2650) at 800-fold the tested concentration and stored at -70 degrees C prior to their use. All drugs and investigational agents were tested over a range starting from a high concentration at or near the clinical Cmax and decreasing in half-log increments. If the clinical Cmax for an agent had not been determined, the highest concentration tested was 10 microM.
Cell Culture. All cells were maintained in an incubator at 37 degrees C and 5% CO2 with 95% humidity. The PDC lines were cultured according to standard operating procedures established by the NCI PDMR. All PDCs were thawed and cultured in Matrigel-coated flasks prepared with a working solution of 1X Ham's F-12 nutrient mix, without supplementation (Invitrogen, Waltham, MA, cat. 11765054), 100 U/mL penicillin-streptomycin (Invitrogen, cat. 15140122), and 2.5% Matrigel (Corning Inc., Corning, NY, cat. 354248) for the first three passages. The 362531-283-R-J2-PDC and 782815-120-R-J1-PDC lines were cultured in 6C/Colon 1B media, which includes advanced DMEM/F-12 (Thermo Fisher Scientific, cat. 12634028), 10 mM HEPES (Thermo Fisher Scientific, cat. 15630080), 1X GlutaMAX supplement (Thermo Fisher Scientific, cat. 35050061), 0.1 mg/mL primocin (InvivoGen, San Diego, CA, cat. ant-pm-2), 10% defined fetal bovine serum, heat inactivated (HyClone Laboratories Inc., Logan, UT, cat. SH30070.03HI), 50% L-WRN conditioned media (ATCC, cat. CRL-3276), 1.25 mM N-Acetyl-L-cysteine (Sigma-Aldrich, cat. A9165), 10 mM nicotinamide (Sigma-Aldrich, cat. N0636), 1X B-27 supplement (Thermo Fisher Scientific, cat. 17504044), 1X N-2 supplement (Thermo Fisher Scientific, cat. 17502048), 50 ng/mL human EGF (Thermo Fisher Scientific, cat. PHG0311), and 10 microM Y-27632 dihydrochloride (Tocris Bioscience, cat. 1254). The K12877-001-R-J1-PDC line was cultured in 6I media, which includes all 6C/Colon 1B media plus 10 ng/mL human FGF-10 (PeproTech, cat. 100-26), 1 ng/mL human FGF-2 (PeproTech, cat. 100-18B), 1 µM prostaglandin E2 (Tocris Bioscience, cat. 2296), […] hydrocortisone (Sigma-Aldrich, cat. H4001), and […] bovine insulin (Sigma-Aldrich, cat. I6634). The K86415-001-R-J1-PDC line was cultured in 6D media, which includes all 6C/Colon 1B media components minus the L-WRN conditioned media. The 485176-168-R4-J1-PDC was cultured in PANC media, which includes all 6C/Colon 1B media plus 100 ng/mL human FGF-10 (PeproTech, cat. 100-26), 500 nM SB-431542 (Selleckchem, cat. S1067), and 10 nM gastrin (Tocris Bioscience, cat. 3006). […]

[1] = second compound 0.0316 µM, first compound 0.0316 µM
[2] = second compound 0.0316 µM, first compound 0.1 µM
[3] = second compound 0.0316 µM, first compound 0.316 µM
[4] = second compound 0.0316 µM, first compound 1 µM
[5] = second compound 0.1 µM, first compound 0.0316 µM
[6] = second compound 0.1 µM, first compound 0.1 µM
[7] = second compound 0.1 µM, first compound 0.316 µM
[8] = second compound 0.1 µM, first compound 1 µM
[9] = second compound 0.316 µM, first compound 0.0316 µM
[10] = second compound 0.316 µM, first compound 0.1 µM
[11] = second compound 0.316 µM, first compound 0.316 µM
[12] = second compound 0.316 µM, first compound 1 µM
[13] = second compound 1 µM, first compound 0.0316 µM
[14] = second compound 1 µM, first compound 0.1 µM
[15] = second compound 1 µM, first compound 0.316 µM
[16] = second compound 1 µM, first compound 1 µM
[17] = second compound 3.16 µM, first compound 0.0316 µM
[18] = second compound 3.16 µM, first compound 0.1 µM
[19] = second compound 3.16 µM, first compound 0.316 µM
[20] = second compound 3.16 µM, first compound 1 µM
[21] = second compound 10 µM, first compound 0.0316 µM
[22] = second compound 10 µM, first compound 0.1 µM
[23] = second compound 10 µM, first compound 0.316 µM
[24] = second compound 10 µM, first compound 1 µM
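For viability, T/C in this document: spheroids exposed to agents for seven days before readout; 100% = DMSO vehicle control wells.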

For CCN1CCN(Cc2ccc(Nc3ncc(F)c(-c4cc(F)c5nc(C)n(C(C)C)c5c4)n3)nc2)CC1 + C#Cc1c(F)ccc2cc(O)cc(-c3ncc4c(N5CC6CCC(C5)N6)nc(OCC56CCCN5CC(F)C6)nc4c3F)c12, the IC50 (second compound 0.0316 µM) was 0.502 µM, the IC50 (second compound 0.1 µM) was 0.526 µM and the IC50 (second compound 0.316 µM) was 0.524 µM. It also gave an IC50 (second compound 1 µM) of 0.49 µM, an IC50 (second compound 3.16 µM) of 0.526 µM and an IC50 (second compound 10 µM) of 0.31 µM. For the same compound, the viability, T/C (second compound 0.0316 µM, first compound 0.00316 µM) was 105%, the viability, T/C (second compound 0.0316 µM, first compound 0.01 µM) was 97.1% and the viability, T/C [1] was 98.9%. For the same compound, the viability, T/C [2] was 83.4%, the viability, T/C [3] was 69.8% and the viability, T/C [4] was 23.9%. For the same compound, the viability, T/C (second compound 0.1 µM, first compound 0.00316 µM) was 109%, the viability, T/C (second compound 0.1 µM, first compound 0.01 µM) was 102% and the viability, T/C [5] was 92.9%. It also gave a viability, T/C [6] of 87%, a viability, T/C [7] of 68.9% and a viability, T/C [8] of 28.3%. For the same compound, the viability, T/C (second compound 0.316 µM, first compound 0.00316 µM) was 116%, the viability, T/C (second compound 0.316 µM, first compound 0.01 µM) was 92.8% and the viability, T/C [9] was 94%. The viability, T/C [10] was 92.7%, the viability, T/C [11] was 69% and the viability, T/C [12] was 26.5%. It also gave a viability, T/C (second compound 1 µM, first compound 0.00316 µM) of 115%, a viability, T/C (second compound 1 µM, first compound 0.01 µM) of 112% and a viability, T/C [13] of 98.7%. For the same compound, the viability, T/C [14] was 81.6%, the viability, T/C [15] was 67.1% and the viability, T/C [16] was 27.8%. For the same compound, the viability, T/C (second compound 3.16 µM, first compound 0.00316 µM) was 126%, the viability, T/C (second compound 3.16 µM, first compound 0.01 µM) was 112% and the viability, T/C [17] was 100%. The viability, T/C [18] was 86.2%, the viability, T/C [19] was 71.4% and the viability, T/C [20] was 28.5%. The viability, T/C (second compound 10 µM, first compound 0.00316 µM) was 125%, the viability, T/C (second compound 10 µM, first compound 0.01 µM) was 113% and the viability, T/C [21] was 100%. The viability, T/C [22] was 84.4%, the viability, T/C [23] was 48.4% and the viability, T/C [24] was 3.09%.

C[C@@H](NC(=O)c1ncnc(N)c1Cl)c1ncc(C(=O)Nc2cc(C(F)(F)F)c(Cl)cn2)s1 + C#Cc1c(F)ccc2cc(O)cc(-c3ncc4c(N5CC6CCC(C5)N6)nc(OCC56CCCN5CC(F)C6)nc4c3F)c12 showed an IC50 (second compound 0.0316 µM) of 6.59 µM, an IC50 (second compound 0.1 µM) of 6.77 µM and an IC50 (second compound 0.316 µM) of 6.87 µM. The IC50 (second compound 1 µM) was 7.39 µM, the IC50 (second compound 3.16 µM) was 7.73 µM and the IC50 (second compound 10 µM) was 6.2 µM. It also gave a viability, T/C [1] of 120%, a viability, T/C [2] of 151% and a viability, T/C [3] of 149%. The viability, T/C [4] was 150%, the viability, T/C (second compound 0.0316 µM, first compound 3.16 µM) was 99.2% and the viability, T/C (second compound 0.0316 µM, first compound 10 µM) was 22.1%. For the same compound, the viability, T/C [5] was 130%, the viability, T/C [6] was 133% and the viability, T/C [7] was 153%. It also gave a viability, T/C [8] of 151%, a viability, T/C (second compound 0.1 µM, first compound 3.16 µM) of 94.5% and a viability, T/C (second compound 0.1 µM, first compound 10 µM) of 27.2%. The viability, T/C [9] was 132%, the viability, T/C [10] was 123% and the viability, T/C [11] was 145%. For the same compound, the viability, T/C [12] was 140%, the viability, T/C (second compound 0.316 µM, first compound 3.16 µM) was 94.2% and the viability, T/C (second compound 0.316 µM, first compound 10 µM) was 28.7%. The viability, T/C [13] was 138%, the viability, T/C [14] was 139% and the viability, T/C [15] was 158%. It also gave a viability, T/C [16] of 151%, a viability, T/C (second compound 1 µM, first compound 3.16 µM) of 99.2% and a viability, T/C (second compound 1 µM, first compound 10 µM) of 32.5%. It also gave a viability, T/C [17] of 124%, a viability, T/C [18] of 150% and a viability, T/C [19] of 155%. For the same compound, the viability, T/C [20] was 172%, the viability, T/C (second compound 3.16 µM, first compound 3.16 µM) was 117% and the viability, T/C (second compound 3.16 µM, first compound 10 µM) was 30.7%. The viability, T/C [21] was 136%, the viability, T/C [22] was 145% and the viability, T/C [23] was 154%. For the same compound, the viability, T/C [24] was 166%, the viability, T/C (second compound 10 µM, first compound 3.16 µM) was 91.6% and the viability, T/C (second compound 10 µM, first compound 10 µM) was 20.5%.
